Entries after “also recorded” stand apart in the source; their conditions may differ.
Tests used:
[1] = system: neonatal rat cardiomyocytes; details: neonatal rat cardiomyocytes cultures; cited from earlier work
[2] = system: 5LO interaction with COX2 / cPLA2; assay: co-immunoprecipitation of 5LO with COX2 and cPLA2 in rat hearts; type: in vivo
Protocol: (§1) Rats received: 1) PIO (10 mg/kg/d); 2) ATV (10 mg/kg/d); 3) PIO (10 mg/kg/d)+H89 (20 mg/kg); 4) ATV (10 mg/kg/d)+H89 (20 mg/kg); 5) H89 (20 mg/kg) or 6) water alone (control). PIO and ATV were suspended in water and administered by gastric gavage once daily for 3 days; H-89 was dissolved in DMSO (final concentration 5% v/v) and injected intraperitoneally on the third day. Rats in groups 5 and 6 received water by gastric gavage once daily for 3 days. Rats in groups 1, 2 and 6 received intraperitoneal inkection of DMSO 5%. Sixteen hours after the injection, rats were euthanized and the hearts explanted for further analyses. In another experiment, rats received 3-day pretreatment with: 1) water (sham); 2) PIO (10 mg/kg/d); 3) ATV (10 mg/kg/d); 4) PIO (10 mg/kg/d)+ATV (10 mg/kg/d); or 5) LPS (10 mg/kg).
For co-immunoprecipitation, myocardial cytosolic, membranous and nuclear fractions (500 μg) were incubated with anti-5LO antibodies for 4 h followed by overnight incubation at 4° C. with Protein-A-Agarose. The agarose beads were collected by centrifugation and SDS/PAGE Western immunoblotting was performed with the supernatant fraction. The anti-5LO precipitates were subjected to immunoblotting with anti-COX2 or anti-cPLA2 antibodies.

[3] = system: 5LO (Ser523 phosphorylated 5LO); assay: immunoblotting of total 5LO and P-5LO in rat myocardium (whole cell homogenate); type: in vivo
Protocol: as §1
PIO and ATV were administered by oral gavage once daily as above; LPS was administered intravenously. In addition, rats in groups 1-4 received intravenous saline on the […], whereas rats in group 1 and 5 received water by gastric gavage once daily for 3 days and the LPS injection on the third day. Sixteen hours after the injection, rats were euthanized and the hearts explanted for further analyses.
The hearts were rapidly explanted, rinsed in cold PBS (pH 7.4), containing 0.16 mg/ml heparin to remove red blood cells and clots, frozen in liquid nitrogen and stored at −70° C. Myocardial samples from the anterior left ventricular wall were homogenized in RIPA lysis buffer (Santa Cruz Biotechnology, Santa Cruz, Calif.) and centrifuged at 14,000 rpm for 15 min at 4° C. The supernatant was collected and the total protein concentration was determined using the Lowry protein assay. […] The protein samples with loading buffer were run in 4-20% Tri-HCl Ready Gel at a 100V for 2 h until the desired molecular weight bands were separated. After electrophoresis, the gel was equilibrated in transfer buffer (25 mM Tris, 193 mM glycine, 0.1% SDS and 10% methanol) and the proteins were transferred to nitrocellulose membrane. The protein signals were quantified by an image-scanning-densitometer and the strength of each protein signal was normalized to the corresponding b-actin stain signal. Data are expressed as a ratio between the protein and the corresponding b-actin signal density.

[4] = system: 5LO mRNA; assay: rtPCR of 5LO mRNA in adult rat cardiomyocytes; type: cell-based
Protocol: Cardiac myocytes were isolated from adult Sprague-Dawley rats (250-300 g, male). Animals were heparinized (1,000-2,000 units i.p.) 5 min before being anesthetized with ketamine (100 mg/kg) and xylazine (10 mg/kg), and the hearts were removed and placed in ice-cold heart media solution (in mmol/l: 112 NaCl, 5.4 KCl, 1 MgCl2, 9 NaH2PO4, and 11.1 D-glucose; supplemented with 10 HEPES, 30 taurine, 2 DL-carnitine, and 2 creatine, pH. 7.4). The hearts were perfused retrogradely in a Langendorff apparatus with Ca^2+-free heart media for 5 min at 5 ml/min at 37° C., followed by perfusion with Ca^2+-free heart media containing collagenase II, 210 U/mg (Worthington, Lakewood, N.J.) for 20 min. After perfusion, both ventricles were removed from the heart and minced in collagenase II-containing heart media for 10-15 min. The cell solution was then washed several times to remove collagenase II and reexposed to 1.2 mM Ca2^+ over 25 min to produce Ca2^+-tolerant cardiac myocytes. Myocytes were then plated in 4% FBS on laminin (2 μg/cm^2)-coated plates for 1 h and incubated at 37° C. in 5% CO2 for 12-24 h before experiments (21). Cells were incubated with 1) vehicle (0.07% ethanol); 2) PIO (10 μM)+ATV (10 μM); 3) H-89 (0.1 μM); or 4) PIO+ATV+H-89 for 12 hours. The supernatants were collected directly for LTB4 analyses by ELISA and the cells were harvested for immunoblotting. In addition, cells were plated in 8-chamber slides, received the same treatment as above and were used for immunohistochemical staining.
Equal amounts of total cellular RNA were reverse-transcribed with oligo(dT) primer by use of AMV Reverse Transcriptase (Applied Biosystems). Transcribed cDNAs (40 ng) were used for Real Time PCR with specific primers: rat ALOX5. […] The Ct (threshold cycle) is defined as the number of cycles required for the fluorescence signal to exceed the detection threshold. Expression of the ALOX5 relative to the GAPDH was calculated as the different between the threshold values of these two genes. […]

[5] = system: 5LO; assay: immunoblotting of 5LO in cytosolic, membranous and nuclear fractions of myocardial cells; type: in vivo; details: rat myocardium
Protocol: Rats received: 1) […] (20 mg/kg) or 6) water alone (control). PIO and ATV were suspended in water and administered by gastric gavage once daily for 3 days; H-89 was dissolved in DMSO (final concentration 5% v/v) and injected intraperitoneally on the third day. Rats in groups 5 and 6 received water by gastric gavage once daily for 3 days. Rats in groups 1, 2 and 6 received intraperitoneal inkection of DMSO 5%. Sixteen hours after the injection, rats were euthanized and the hearts explanted for further analyses. In another experiment, rats received 3-day pretreatment with: 1) […]); or 5) LPS (10 mg/kg). Myocardial samples (0.25 g) were homogenized, mixed with Buffer A Mix [Hepes (pH 7.9) 10 mM, KCl 10 mM, EDTA 10 mM, DTT 100 mM, protease inhibitor cocktail, and IGEPAL 10%, (Sigma, St Lois, Mo.)], homogenized again and incubated for 15 min on ice, and centrifuged at 850×g for 10 min at 4° C. The supernatant was discharged, Buffer A Mix was added again and the samples incubated for an additional 15 min on ice, and centrifuged at 15,000×g for 3 min at 40 C. The supernatant contains the cytosolic fraction was collected. The pellet was resuspended in 150 μl of Buffer B Mix [Hepes (pH 7.9) 20 mM, NaCl 0.4M, EDTA 1 mM, glycerol 10%, protease inhibitor cocktail, and IGEPAL 10%], the tubes were shaked on ice at 200 rpm for 2 h, centrifuged at 15,000×g for 5 min at 4° C., and supernatants were collected as the nuclear fraction. […] The hearts were rapidly explanted, rinsed in cold PBS (pH 7.4), containing 0.16 mg/ml heparin to remove red blood cells and clots, frozen in liquid nitrogen and stored at -70° C. Myocardial samples from the anterior left ventricular wall were homogenized in RIPA lysis buffer (Santa Cruz Biotechnology, Santa Cruz, Calif.) and centrifuged at 14,000 rpm for 15 min at 4° C. The supernatant was collected and the total protein concentration was determined using the Lowry protein assay. […] The protein samples with loading buffer were run in 4-20% Tri-HCl Ready Gel at a 100V for 2 h until the desired molecular weight bands were separated. After electrophoresis, the gel was equilibrated in transfer buffer (25 mM Tris, 193 mM glycine, 0.1% SDS and 10% methanol) and the proteins were transferred to nitrocellulose membrane. The protein signals were quantified by an image-scanning-densitometer and the strength of each protein signal was normalized to the corresponding b-actin stain signal. Data are expressed as a ratio between the protein and the corresponding b-actin signal density.

[6] = system: rat infarct model; assay: rat infarct model, infarct size; type: in vivo; details: ATV 2 mg/kg/d, cilostazol 20 mg/kg/d, alone or combined
Protocol: The effects of cilostazol (Pletal) and atorvastatin on myocardial protection was measured in a rat infarct model. Pletal is a phosphodiesterase III inhibitor, thus increasing intracellular cAMP levels. cAMP activates PKA. ATV at 2 mg/kg/d had no effect. Cilostazol 20 mg/kg/d reduced infarct size. However, when combined with ATV 2 mg/kg/d the effect was much greater. There are 8 rats in the control and ATV 2 mg/kg/d groups and 6 rats in the cilostazol and the combination groups. Infarct size in the ATV 2 mg/kg/d (30.48±1.46%) is not different from the controls (33.97±2.76%).

[7] = whole cell homogenate, PIO or ATV 10 mg/kg/d 3 days, H-89 20 mg/kg i.p.

CC(C)c1ccc2c(c1)c(SC(C)(C)C)c(CC(C)(C)C(=O)O)n2Cc1ccc(Cl)cc1 [MK886]
calcium ionophore (A23187) induction of reactive oxygen species [1]: prevented

CCc1ccc(CCOc2ccc(CC3SC(=O)NC3=O)cc2)nc1 (centres unmarked) [PIO, 5-[[4-[2-(5-ethylpyridin-2 yl)ethoxy]phenyl]methyl]thiazolidine-2,4-dione]
fraction in which the co-immunoprecipitation with 5LO occurred ([2]; cytosolic and membranous fractions): in the cytosolic, but not the membranous fraction; also recorded: only in the cytosolic fraction
co-immunoprecipitation of COX2 or cPLA2 with 5LO ([2]; whole cell lysate): 5LO precipitated with COX2 and COX2, but not cPLA2, precipitated with 5LO
5LO phosphorylation, PIO and ATV compared with LPS ([3]; PIO, ATV 10 mg/kg/d, LPS 10 mg/kg i.v.): significantly greater increase
myocardial levels of Ser523 phosphorylated 5LO (P-5LO) [3, 7]: augment; also recorded: increased
myocardial total 5LO levels [3, 7]: without detectable change; also recorded: did not affect
5LO mRNA levels in the cardiomyocytes [4]: did not affect
5LO levels in the cytosolic fraction [5]: small, yet significant increase
5LO levels in the membranous fraction [5]: no detectable effect

O=C1CCc2cc(OCCCCc3nnnn3C3CCCCC3)ccc2N1 [cilostazol]
Infarct size [6]: 15.47±1.61%
effect on infarct size (in words) [6]: reduced

Source: patent publication US20090042849A1, “Phosphorylation of 5-lipoxygenase at ser523 and uses thereof” (priority 2006, published 2009)
